Measured values: patent US10203330B2, “Methods and materials for identifying and treating mammals having lung adenocarcinoma characterized by neuroendocrine differentiation” (Mayo Foundation for Medical Education and Research, priority 2013, dated 2019)
Entries after “also recorded” stand apart in the source; their conditions may differ.

How the values were obtained:
Assay type in all cases: cell-based
[1] = tested on: A549 cells and A549-ASCL1 cells; test: Clonogenic number of A549 and A549-ASCL1 cells after cisplatin treatment; conditions: ASCL1 over-expressing cells versus cells not expressing ASCL1; 0, 3 or 9 μM cisplatin for 14 days, FIG. 15
ASCL1 = ASCL1 knock down in HCC1833 cells, ASCL1 and RET expression; conditions: HCC1833 cells transfected with the construct, FIG. 13 left
Text: Two cell lines are used to confirm the effectiveness of drugs for treating lung adenocarcinoma characterized by neuroendocrine differentiation. The first is the HCC1833 cell line, which was derived from lung AD and has high expression levels of ASCL1 and RET. The second in the A549 cell line which has low endogenous expression of ASCL1 and is stably transfected with ASCL1 (A549-As^+). A549-As^+ captures salient features of ASCL1^+ lung AD from patients, including increased expression of RET. HCC1833 are stably transfected with ASCL1 siRNA to knock down ASCL1 and produce a HCC1833-AsKD cell line. Lowering ASCL1 expression leads to low levels of RET expression.
(§1) The HCC1833 adenocarcinoma cell line expressed high endogenous levels of ASCL1 and RET (FIG. 13, left). […] In addition, STAT3 expression (in JAK/STAT3 pathway) went down.

HCC1833 cells = test: Filling the gap scratch assay; conditions: HCC1833 cells transfected with ASCL1 shRNA versus wild-type and control vector cells, day 3, FIG. 14; listed as ASCL1-sh2
Text: FIG. 14 contains photographs of cells from a filling the gap scratch assay (see, e.g., Liang et al., Nature Protocols, 2:329-333 (2007)).
as §1

| Compound | remaining clonogenic potential after cisplatin treatment [1] | ASCL1 expression (ASCL1) | RET expression (ASCL1) | ability to fill the gap (migration capacity) (HCC1833 cells) |
| --- | --- | --- | --- | --- |
| N.N.[Cl][Pt][Cl] [cisplatin] | higher than in cells that did not express ASCL1 |  |  |  |
| sh1: a small interfering RNA construct that includes: GCCAACAAGAAGATGAGTAAG (SEQ ID NO: 1) (listed as DNA, chemistry not given here) |  | reduced ASCL1 expression | reduced |  |
| sh2: a small interfering RNA construct that includes: CAACCGCGTCAAGTTGGTCAA (SEQ ID NO:2) (listed as DNA, chemistry not given here) |  | reduced ASCL1 expression | reduced | much slower ability to filling the gap; also recorded: did not fill as much of the gap |
